Tests used:
PPARα = target: T1, PPARα (Homo sapiens, UniProt Q07869); assay: PPARα radioligand binding assay (scintillation proximity, GST-PPARα-LBD); conditions: GST-PPARα-LBD fusion protein, SPA radioligand binding
T1 construct: PPARα (aa 167 to 469); made in house; host or cells: E. coli BL21 (pLysS)
T1 sequence (Q07869 167-468 limits assumed): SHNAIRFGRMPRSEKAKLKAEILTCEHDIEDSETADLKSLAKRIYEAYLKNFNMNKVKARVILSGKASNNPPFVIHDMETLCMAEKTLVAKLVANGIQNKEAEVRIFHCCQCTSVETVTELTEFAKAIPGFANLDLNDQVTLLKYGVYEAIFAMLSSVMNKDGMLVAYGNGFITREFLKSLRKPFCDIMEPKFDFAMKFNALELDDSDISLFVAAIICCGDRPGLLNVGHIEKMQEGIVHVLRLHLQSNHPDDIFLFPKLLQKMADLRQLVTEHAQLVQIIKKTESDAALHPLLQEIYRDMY
Excerpt: (§1) Background information on the performed assays can be found in: Nichols J S et al. “Development of a scintillation proximity assay for peroxisome proliferator-activated receptor gamma ligand binding domain”, (1998) Anal. Biochem. 257:112-119.
(§2) Full-length cDNA clones for humans PPARδ and PPARα and mouse PPARγ were obtained by RT-PCR from human adipose and mouse liver cRNA, respectively, cloned into plasmid vectors and verified by DNA sequencing. Bacterial and mammalian expression vectors were constructed to produce glutathione-s-transferase (GST) and Gal4 DNA binding domain proteins fused to the ligand binding domains (LBD) of PPARδ (aa 139 to 442), PPARγ (aa 174 to 476) and PPARα (aa 167 to 469). To accomplish this, the portions of the cloned sequences encoding the LBDs were amplified from the full-length clones by PCR and then subcloned into the plasmid vectors. Final clones were verified by DNA sequence analysis.
(§3) Induction, expression, and purification of GST-LBD fusion proteins were performed in E. coli strain BL21 (pLysS) cells by standard methods (Ref: Current Protocols in Molecular Biology, Wiley Press, edited by Ausubel et al.).
(§4) Radioligand Binding Assay
(§5) PPARα receptor binding was assayed in TKE50 (50 mM Tris-HCl, pH 8, 50 mM KCl, 2 mM EDTA, 0.1 mg/ml fatty acid-free BSA and 10 mM DTT). For each 96 well reaction an 140 ng equivalent of GST-PPARα-LBD fusion protein was bound to 10 μg SPA beads (PharmaciaAmersham) in a final volume of 50 μl by shaking. The resulting slurry was incubated for 1 h at RT and centrifuged for 2 min at 1300 g. The supernatant containing unbound protein was removed and the semidry pellet containing the receptor-coated beads was resolved in 50 μl of TKE. […] All binding assays were performed in 96 well plates and the amount of bound ligand measured on a Packard TopCount using OptiPlates (Packard). Nonspecific binding was determined in the presence of 10^−4 M unlabelled compound. […]

PPARγ = target: T2, PPARγ (Mus musculus, UniProt P37238); assay: PPARγ radioligand binding assay (scintillation proximity, GST-PPARγ-LBD); conditions: GST-PPARγ-LBD fusion protein, SPA radioligand binding
T2 construct: PPARγ (aa 174 to 476); made in house; host or cells: E. coli BL21 (pLysS)
T2 sequence (P37238 204-505): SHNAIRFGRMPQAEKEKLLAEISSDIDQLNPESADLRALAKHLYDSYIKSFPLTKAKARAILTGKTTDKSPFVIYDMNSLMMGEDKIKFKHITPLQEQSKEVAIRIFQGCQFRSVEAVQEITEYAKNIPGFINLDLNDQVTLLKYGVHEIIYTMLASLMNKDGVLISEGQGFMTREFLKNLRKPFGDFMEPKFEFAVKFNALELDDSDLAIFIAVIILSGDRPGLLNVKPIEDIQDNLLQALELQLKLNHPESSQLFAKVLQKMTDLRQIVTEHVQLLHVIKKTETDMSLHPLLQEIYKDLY
Excerpt: as §1, §2, §3, §4
as §5, with “PPARγ” for “PPARα”, “GST-PPARγ-LBD” for “GST-PPARα-LBD”, “ul” for “μl”

PPARδ = target: T3, PPARδ (Homo sapiens, UniProt Q03181); assay: PPARδ radioligand binding assay (scintillation proximity, GST-PPARδ-LBD); conditions: GST-PPARδ-LBD fusion protein, SPA radioligand binding
T3 construct: PPARδ (aa 139 to 442); made in house; host or cells: E. coli BL21 (pLysS)
T3 sequence (Q03181 139-441 limits assumed): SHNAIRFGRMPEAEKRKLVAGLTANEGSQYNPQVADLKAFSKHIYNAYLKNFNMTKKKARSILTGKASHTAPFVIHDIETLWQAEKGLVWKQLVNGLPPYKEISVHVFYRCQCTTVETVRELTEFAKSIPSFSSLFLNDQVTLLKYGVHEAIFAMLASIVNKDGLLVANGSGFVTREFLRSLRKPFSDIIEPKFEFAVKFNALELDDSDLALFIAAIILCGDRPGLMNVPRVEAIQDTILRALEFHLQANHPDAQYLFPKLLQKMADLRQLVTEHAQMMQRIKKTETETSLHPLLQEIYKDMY
Excerpt: as §1, §2, §3, §4
PPARδ receptor binding was assayed in HNM10 (50 mM Hepes, pH 7.4, 10 mM NaCl, 5 mM MgCl2, 0.15 mg/ml fatty acid-free BSA and 15 mM DTT). For each 96 well reaction a 500 ng equivalent of GST-PPARδ-LBD fusion protein and radioligand, e.g. 20000 dpm {2-methyl-4-[4-methyl-2-(4-trifluoromethyl-phenyl)-thiazol-5-yl-ditritiomethylsulfanyl]-phenoxy}-acetic acid, was bound to 10 μg SPA beads (PharmaciaAmersham) in a final volume of 50 μl by shaking. The resulting slurry was incubated for 1 h at RT and centrifuged for 2 min at 1300 g. […] Radioligand was added and the reaction incubated at RT for 1 h and scintillation proximity counting performed in the presence of test compounds was determined. All binding assays were performed in 96 well plates and the amount of bound ligand was measured on a Packard TopCount using OptiPlates (Packard). […]

| SMILES | IC50 (PPARα) | IC50 (PPARγ) | IC50 (PPARδ) | melting point |
| --- | --- | --- | --- | --- |
| COC(Cc1cc(OCCc2ccc(-c3ccc(C(F)(F)F)cc3)nc2C)c2ccccc2c1)C(=O)O (racemic) [Example 4, [rac]-2-Methoxy-3-(4-{2-[2-methyl-6-(4-trifluoromethyl-phenyl)-pyridin-3-yl]-ethoxy}-naphthalen-2-yl)-propionic acid] | 37 nM | > 10000 nM | 295 nM | – |
| Cc1nc(-c2ccc(C(F)(F)F)cc2)ccc1COc1ccc(CCC(=O)O)c2c1CCCC2 [Example 5, 3-{4-[2-Methyl-6-(4-trifluoromethyl-phenyl)-pyridin-3-ylmethoxy]-5,6,7,8-tetrahydro-naphthalen-1-yl}-propionic acid] | 716 nM | > 10000 nM | 106 nM | – |
| Cc1nc(-c2ccc(C(F)(F)F)cc2)ccc1C(C)N(C)c1ccc(OCC(=O)O)c2ccccc12 (racemic) [Example 1, [rac]-[4-(Methyl-{1-[2-methyl-6-(4-trifluoromethyl-phenyl)-pyridin-3-yl]-ethyl}-amino)-naphthalen-1-yloxy]-acetic acid] | – | – | – | 157 to 158 °C |

Second part, the compound after the results:

| IC50 (PPARα) | IC50 (PPARγ) | IC50 (PPARδ) | melting point | SMILES |
| --- | --- | --- | --- | --- |
| 3580 nM | > 10000 nM | 65 nM | – | CCCC(c1ccc(-c2cccc(C(F)(F)F)c2)nc1C)N(C)c1ccc(OCC(=O)O)c2ccccc12 (racemic) [Example 3, [rac]-[4-(Methyl-{1-[2-methyl-6-(3-trifluoromethyl-phenyl)-pyridin-3-yl]-butyl}-amino)-naphthalen-1-yloxy]-acetic acid] |
| – | – | – | 76 to 78 °C | CCC(c1ccc(-c2cccc(C(F)(F)F)c2)nc1C)N(C)c1ccc(OCC(=O)O)c2ccccc12 (racemic) [Example 2, [rac]-[4-(Methyl-{1-[2-methyl-6-(3-trifluoromethyl-phenyl)-pyridin-3-yl]-propyl}-amino)-naphthalen-1-yloxy]-acetic acid] |
